Data published in patent US20160002204A1 (Board of Regents, The University of Texas System, priority 2014, published 2016).

What was measured:
[1] = molecular target: T1, GLS1 (purified recombinant human GAC) (Homo sapiens, UniProt O94925); experiment: GLS1 enzymatic activity assay (dual-coupled, Amplex UltraRed/resorufin); type: biochemical
T1 sequence (O94925 55-598 isoform O94925-3 limits assumed): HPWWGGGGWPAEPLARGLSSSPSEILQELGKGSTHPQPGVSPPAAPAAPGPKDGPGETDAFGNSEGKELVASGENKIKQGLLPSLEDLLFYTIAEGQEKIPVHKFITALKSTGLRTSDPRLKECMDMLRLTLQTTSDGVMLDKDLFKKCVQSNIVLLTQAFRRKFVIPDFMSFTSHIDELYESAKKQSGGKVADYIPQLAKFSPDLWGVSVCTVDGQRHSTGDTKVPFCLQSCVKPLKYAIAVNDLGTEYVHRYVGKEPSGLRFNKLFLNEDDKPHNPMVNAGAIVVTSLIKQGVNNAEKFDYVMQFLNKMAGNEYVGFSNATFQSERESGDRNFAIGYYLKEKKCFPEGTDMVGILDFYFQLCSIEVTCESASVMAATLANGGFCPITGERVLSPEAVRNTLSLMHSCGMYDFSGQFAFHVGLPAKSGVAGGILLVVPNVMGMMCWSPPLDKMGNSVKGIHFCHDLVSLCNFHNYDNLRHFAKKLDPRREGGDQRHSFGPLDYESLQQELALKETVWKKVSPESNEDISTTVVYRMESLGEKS
Procedure, shortened: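 In this coupled fluorometric format, phosphate-activated GAC (2 nM, 50 mM phosphate) is pre-exposed to compound for 10 min before 1 mM glutamine addition. Product is tracked as resorufin (530/590 nm) over time or at 20 min, and potency is derived by logistic fitting.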

A549 cells = experiment: A549 proliferation (viability) assay, Cell Titer Fluor, 72 hours; type: cell-based; settings: Homo sapiens
Procedure: A549 cells were routinely maintained in RPMI 1640 media (Gibco catalog number 11875-093) supplemented with 10% dialyzed fetal bovine serum using a humidified incubator (37° C., 5% CO2 and ambient O2). In preparation for the viability assay, cells were inoculated into 384-well black CulturPlates (Perkin Elmer) at a density of 1000 cells/well in a volume of 40 uL. Following a 24-hour incubation at 37° C., 5% CO2 and ambient O2, cells were treated with compound (10 uL) in a final DMSO concentration of 0.5% (v/v). The microplates were then incubated for 72 hours (37° C., 5% CO2 and ambient O2). Cell Titer Fluor (Promega) was subsequently added (10 uL of 6× reagent) and mixed for 15 minutes at room temperature. The plates were then incubated for 30 minutes (37° C., 5% CO2 and ambient O2) and fluorescence was subsequently read on the Perkin Elmer Envision plate reader. EC50 values were calculated using a four-parameter logistic curve fit.

Row | SMILES | IC50 [1] | EC50 (A549 cells)
1 | COc1cccc(CC(=O)Nc2ccn(CCC(F)Cn3cc(C(=O)NCc4cccc(OC(F)(F)F)c4)nn3)c(=O)c2)n1 (stereo not drawn) [Example 251, 1-(2-fluoro-4-{4-[2-(6-methoxypyridin-2-yl)acetamido]-2-oxo-1,2-dihydropyridin-1-yl}butyl)-N-{[3-(trifluoromethoxy)phenyl]methyl}-1H-1,2,3-triazole-4-carboxamide] | < 100 nM | 100 to 500 nM
2 | Cc1ccc(CNC(=O)c2cn(CCC(F)Cn3ccc(NC(=O)Cc4ccccc4)cc3=O)nn2)cn1 (stereo not drawn) [Example 148, 1-{3-fluoro-4-[2-oxo-4-(2-phenylacetamido)-1,2-dihydropyridin-1-yl]butyl}-N-[(6-methylpyridin-3-yl)methyl]-1H-1,2,3-triazole-4-carboxamide] | < 100 nM | 500 to 5000 nM
3 | CC(C)CNC(=O)c1ccn(CCCCn2cc(C(=O)NCc3cccc(OC(F)(F)F)c3)nn2)c(=O)c1 [Example 62, N-(2-methylpropyl)-2-oxo-1-{4-[4-({[3-(trifluoromethoxy)phenyl]methyl}carbamoyl)-1H-1,2,3-triazol-1-yl]butyl}-1,2-dihydropyridine-4-carboxamide] | 100 to 500 nM | 500 to 5000 nM
4 | O=C(Cc1ccccc1)Nc1ccc(CCCCn2ccc(NC(=O)Cc3cccc(OC(F)(F)F)c3)nc2=O)nn1 [Example 99, N-{6-[4-(2-oxo-4-{2-[3-(trifluoromethoxy)phenyl]acetamido}-1,2-dihydropyrimidin-1-yl)butyl]pyridazin-3-yl}-2-phenylacetamide] | < 100 nM | < 100 nM
5 | O=C(Cc1cccc(OC(F)(F)F)c1)Nc1ccc(CCCCn2ccc(NC(=O)[C@@H](O)c3ccccc3)nc2=O)nn1 [Example 78, (2S)-2-hydroxy-N-{2-oxo-1-[4-(6-{2-[3-(trifluoro-methoxy)phenyl]acetamido}pyridazin-3-yl)butyl]-1,2-dihydropyrimidin-4-yl}-2-phenylacetamide] | < 100 nM | < 100 nM
6 | O=C(CC1CCCCC1)Nc1ccn(CCCCn2cc(C(=O)NCc3cc(Cl)ccc3F)nn2)c(=O)c1 [Example 181, N-[(5-chloro-2-fluorophenyl)methyl]-1-{4-[4-(2-cyclohexylacetamido)-2-oxo-1,2-dihydropyridin-1-yl]butyl}-1H-1,2,3-triazole-4-carboxamide] | < 100 nM | 100 to 500 nM
7 | NC(=O)CNC(=O)c1cn(CCCCn2ccc(NC(=O)Cc3cccc(OC(F)(F)F)c3)cc2=O)nn1 [Example 136, 2-({1-[4-(2-oxo-4-{2-[3-(trifluoromethoxy)phenyl]acetamido}-1,2-dihydropyridin-1-yl)butyl]-1H-1,2,3-triazol-4-yl}formamido)acetamide] | 100 to 500 nM | > 5000 nM
8 | O=C(Cc1ccccc1)Nc1nnc(CCCCn2cc3cc(Cc4ccccc4)[nH]c3nc2=O)s1 [Example 29, N-(5-(4-(6-benzyl-2-oxo-2,7-dihydro-3H-pyrrolo[2,3-d]pyrimidin-3-yl)butyl)-1,3,4-thiadiazol-2-yl)-7-phenylacetamide] | < 100 nM | > 5000 nM
9 | CC(C)(C)OC(=O)N[C@@H]1CCC[C@@H](C(=O)Nc2ccn(CCC(F)Cn3cc(C(=O)NCc4cccc(OC(F)(F)F)c4)nn3)c(=O)c2)C1 (stereo partly drawn) [Example 249, tert-butyl N-[(1R,3R)-3-[(1-{3-fluoro-4-[4-({[3-(trifluoromethoxy)phenyl]methyl}carbamoyl)-1H-1,2,3-triazol-1-yl]butyl}-2-oxo-1,2-dihydropyridin-4-yl)carbamoyl]cyclohexyl]carbamate] | < 100 nM | < 100 nM

Next, values leading:

Row | IC50 [1] | EC50 (A549 cells) | SMILES
10 | < 100 nM | < 100 nM | O=C(Nc1ccn(CCC(F)Cn2cc(C(=O)NCc3cccc(OC(F)(F)F)c3)nn2)c(=O)c1F)C(=O)N1CCCC(C(F)(F)F)C1 (stereo not drawn) [Example 419, 1-[2-fluoro-4-(3-fluoro-2-oxo-4-{2-oxo-2-[3-(trifluoromethyl)piperidin-1-yl]acetamido}-1,2-dihydropyridin-1-yl)butyl]-N-{[3-(trifluoromethoxy)phenyl]methyl}-1H-1,2,3-triazole-4-carboxamide]
11 | 100 to 500 nM | 100 to 500 nM | O=C(NCc1cc(C(F)(F)F)ccn1)c1cn(CC(F)CCn2ccc(COc3c(F)cccc3F)cc2=O)nn1 (stereo not drawn) [Example 485, 1-{4-[4-(2,6-difluorophenoxymethyl)-2-oxo-1,2-dihydropyridin-1-yl]-2-fluorobutyl}-N-{[4-(trifluoromethyl)pyridin-2-yl]methyl}-1H-1,2,3-triazole-4-carboxamide]
12 | 100 to 500 nM | 500 to 5000 nM | Cc1ccc(CNC(=O)c2cn(CC(F)CCn3ncc(NC(=O)CC4CCC4)cc3=O)nn2)cn1 (stereo not drawn) [Example 402, 1-{4-[4-(2-cyclobutylacetamido)-6-oxo-1,6-dihydropyridazin-1-yl]-2-fluorobutyl}-N-[(6-methylpyridin-3-yl)methyl]-1H-1,2,3-triazole-4-carboxamide]
13 | 100 to 500 nM | 100 to 500 nM | O=C(NCc1ccc(C(F)(F)F)nc1)c1cn(CC(F)CCn2ccc(NC(=O)C3CCCC3)c(F)c2=O)nn1 (stereo not drawn) [Example 370, 1-[4-(4-cyclopentaneamido-3-fluoro-2-oxo-1,2-dihydropyridin-1-yl)-2-fluorobutyl]-N-{[6-(trifluoromethyl)pyridin-3-yl]methyl}-1H-1,2,3-triazole-4-carboxamide]
14 | < 100 nM | < 100 nM | O=C(CC1CCCCC1)Nc1ccn(CCC(F)Cn2cc(C(=O)NCc3cncc(C(F)(F)F)c3)nn2)c(=O)c1F (stereo not drawn) [Example 259, 1-{4-[4-(2-cyclohexylacetamido)-3-fluoro-2-oxo-1,2-dihydropyridin-1-yl]-2-fluorobutyl}-N-{[5-(trifluoromethyl)pyridin-3-yl]methyl}-1H-1,2,3-triazole-4-carboxamide]
15 | < 100 nM | 100 to 500 nM | Cc1ccc(CNC(=O)c2cn(CC(F)CCn3ccc(NC(=O)Cc4ccccc4)c(F)c3=O)nn2)cn1 (stereo not drawn) [Example 307, 1-{2-fluoro-4-[3-fluoro-2-oxo-4-(2-phenylacetamido)-1,2-dihydropyridin-1-yl]butyl}-N-[(6-methylpyridin-3-yl)methyl]-1H-1,2,3-triazole-4-carboxamide]
16 | < 100 nM | 500 to 5000 nM | Cc1ccc(CNC(=O)c2nnc(CCCCn3ccc(NC(=O)Cc4ccccc4)cc3=O)s2)cn1 [Example 441, N-[(6-methylpyridin-3-yl)methyl]-5-{4-[2-oxo-4-(2-phenylacetamido)-1,2-dihydropyridin-1-yl]butyl}-1,3,4-thiadiazole-2-carboxamide]
17 | < 100 nM | 500 to 5000 nM | COC(=O)C1CCN(CC(=O)Nc2ccn(CCC(F)Cn3cc(C(=O)NCc4cccc(OC(F)(F)F)c4)nn3)c(=O)c2)CC1 (stereo not drawn) [Example 273, methyl 1-{[(1-{3-fluoro-4-[4-({[3-(trifluoromethoxy)phenyl]methyl}carbamoyl)-1H-1,2,3-triazol-1-yl]butyl}-2-oxo-1,2-dihydropyridin-4-yl)carbamoyl]methyl}piperidine-4-carboxylate]
18 | < 100 nM | 100 to 500 nM | O=C(Cc1ccccc1F)Nc1ccn(CCC(F)Cn2cc(C(=O)NCc3ccc(C(F)(F)F)nc3)nn2)c(=O)c1F (stereo not drawn) [Example 371, 1-(2-fluoro-4-{3-fluoro-4-[2-(2-fluorophenyl)acetamido]-2-oxo-1,2-dihydropyridin-1-yl}butyl)-N-{[6-(trifluoromethyl)pyridin-3-yl]methyl}-1H-1,2,3-triazole-4-carboxamide]
19 | < 100 nM | < 100 nM | O=C(Cc1cccc(OC(F)(F)F)c1)Nc1ccn(CCCCc2nnc(C(=O)NCc3cc(OC(F)(F)F)ccc3F)s2)c(=O)c1 [Example 459, N-{[2-fluoro-5-(trifluoromethoxy)phenyl]methyl}-5-[4-(2-oxo-4-{2-[3-(trifluoromethoxy)phenyl]acetamido}-1,2-dihydropyridin-1-yl)butyl]-1,3,4-thiadiazole-2-carboxamide]
20 | < 100 nM | 100 to 500 nM | O=C(NCc1cc(C(F)(F)F)ccn1)c1cn(CC(F)CCn2ccc(COc3cccc(OC(F)(F)F)c3)cc2=O)nn1 (stereo not drawn) [Example 483, 1-(2-fluoro-4-{2-oxo-4-[3-(trifluoromethoxy)phenoxymethyl]-1,2-dihydropyridin-1-yl}butyl)-N-{[4-(trifluoromethyl)pyridin-2-yl]methyl}-1H-1,2,3-triazole-4-carboxamide]
21 | < 100 nM | < 100 nM | O=C(CC1CCCC1)Nc1ccn(CCC(F)Cn2cc(C(=O)NCc3cncc(C(F)(F)F)c3)nn2)c(=O)c1F (stereo not drawn) [Example 360, 1-{4-[4-(2-cyclopentylacetamido)-3-fluoro-2-oxo-1,2-dihydropyridin-1-yl]-2-fluorobutyl}-N-{[5-(trifluoromethyl)pyridin-3-yl]methyl}-1H-1,2,3-triazole-4-carboxamide]
